Measurements reported in a melting point compilation (Tetko et al.; mined from patent text by program, amines drawn as free bases though some values may be those of a salt).

| SMILES | melting point |
| --- | --- |
| CCOc1nn(C)c(C(F)(F)F)c1CS(=O)(=O)C1=NOC(C)(C)C1 | 124 to 125 °C |
| CN1CCC(c2c[nH]c3ccc(OS(=O)(=O)c4ccccc4)cc23)CC1 | 192 to 194 °C |
| O=C(Nc1cccc(S(=O)(=O)NCCc2ccncc2)c1)c1cnn2c(C(F)F)cc(-c3ccc(C(F)(F)F)cc3)nc12 | 238 °C |
| CC(C)(O)[C@H](NC(=O)C(Cl)(Cl)Cl)c1ccccc1 | 97 °C |
| CC(C)Oc1ccc(NCCS(=O)(=O)NCCCOc2cccc(CN3CCCCC3)c2)cc1 | 110 to 122 °C |
| Cn1cnc(COc2nn3c(-c4ccccc4)nnc3cc2-c2ccc(Cl)s2)n1 | 248 to 250 °C |
| CN1Cc2c(C(=O)OCCO)ncn2-c2ccccc2C1=O | 222 to 223 °C |
| COC(=O)CCC(C(=O)C=Cc1ccc(OC(C)=O)c(OC(F)(F)F)c1)C(=O)C=Cc1ccc(OC(C)=O)c(OC(F)(F)F)c1 (centres undefined) | 149 to 150 °C |
| CCOC(=O)CSc1nc(Cl)cc(Nc2cccc(C)c2C)n1 | 88 to 93 °C |
| CC1Cc2ccccc2CN(CO)C1=O (centres undefined) | 114 to 116 °C |
| O=S(=O)(Cc1ccc(Cc2ccc(NC3=NCCN3)cc2)cc1)NCc1ccccc1 | 115 to 118 °C |
| CCC12CCC3C4=C(CCC3C1CCC2=O)CC(OC)=CC4 (centres undefined) | 126 to 143 °C |
| CCOc1ccccc1NC=C1C(=O)N(c2ccc(S(=O)(=O)N3CCCCC3)cc2)N=C1C | 252 °C |
| CN(C)CCc1cccc(OCCCCN2C(=O)c3ccccc3C2=O)c1 | 52 to 53 °C |
| COCOCc1nc(-c2ccccc2)oc1C=O | 51 to 52 °C |
| NC(=O)N(O)CCNS(=O)(=O)c1ccc2ccccc2c1 | 174 °C |
| O=c1c2ccccc2nc(-c2cc(-c3ccc(Cl)cc3)c(N3CCOCC3)s2)n1-c1ccccc1 | 229 to 230 °C |
| CN(Cc1cc2c(=O)c(C(=O)NCc3ccc(Cl)cc3)cn(C)c2o1)CC(O)c1cnccn1 (single isomer, unassigned; (+)) | 148 to 151 °C |
| CC(CCC(=O)O)(c1ccc(OCc2ccc3ccccc3n2)cc1)c1ccc(OCc2nc3ccccc3s2)cc1 (centres undefined) | 68 to 72 °C |
| O=[N+]([O-])c1cc([N+](=O)[O-])c(Nc2ccc(Cl)c3ccccc23)c(C(F)(F)F)c1 | 197 to 198 °C |
| Cc1cc2nc(-c3ccc(F)cc3)cn2nc1Cl | 196 to 198 °C |
| CCc1c(C(=O)O)c(C(F)F)nc(C(F)(F)F)c1C(=O)O | 237 to 239 °C |
| CCc1nc(OC)c(NC(=O)N2CCN(c3cc(OC)cc(OC)c3)CC2)cc1C(=O)Nc1cc(CO)cc(Nc2c3ccccc3nc3ccccc23)c1 | 170 to 172 °C |

| SMILES | melting point |
| --- | --- |
| Cc1cc(C)nc(NC(=NO)NS(=O)(=O)c2ccccc2Cl)n1 | 165 to 167 °C |
| CCCCc1ccc(N2C(=O)CN(Cc3ccccc3)C2=S)cc1 | 149 to 151 °C |
| COC(=O)CCCOc1ccc(C=O)cc1OC | 69 °C |
| Cc1cc(O)nc(-c2cccc(-c3ccccc3)n2)n1 | 172 °C |
| O=C1OCCN1C(=O)c1ccccc1 | 166 to 170 °C |
| O=C1N(Cc2ccc(NC3CCNC3)cc2)c2ccccc2C12COc1cc3c(cc12)OCO3 (centres undefined) | 118 to 121 °C |
| CCOC(=O)C1CCc2c(sc3nc(CCl)c(Cl)c(-c4ccc(OC)cc4)c23)C1 (centres undefined) | 113 to 114 °C |
| Cn1c(=O)[nH]c(=O)c2c1ncn2CC1OCCO1 | 276 to 278 °C |
| C=CCOc1ccc(C(=O)Oc2ccc(O)cc2)cc1 | 146 °C |
| COC(=O)Cc1ccc(S(C)(=O)=O)c(S(C)(=O)=O)c1 | 157 to 158 °C |
| Cc1ccccc1-c1c(NC(=O)Nc2c(C(C)C)cccc2C(C)C)oc2ccc(Cl)cc12 | 240 °C |
| CC(C)(C)OC(=O)N[C@@H](CCC(=O)Oc1ccc(-c2nn(C3CCCC3)c3c(F)cccc23)cc1)C(=O)OC(C)(C)C | 92 to 93 °C |
| NC(=O)c1ccc(NC2CCCN(Cc3ccccc3)CC2)c(Cl)c1 (centres undefined) | 174 to 175 °C |
| CCCCn1c(=O)n(CC=C(C)C)c(=O)c2c1ncn2S(=O)(=O)c1ccc(C)cc1 | 130 to 135 °C |
| COc1cc(C(C)C)c2c(c1)S(=O)(=O)NC2=O | 188 °C |
| Cc1cnc(C2=NC(C)(C(C)C)C(=O)N2)c(C(O)c2ccc(C)s2)c1 (centres undefined) | 147 to 148 °C |
| CC(=O)OC1CCC2C3C(Sc4ccc(Br)cc4)C(=O)c4cc(O)ccc4C3CCC12C (centres undefined) | 190 to 192 °C |
| CCCCn1c(=O)c2cc(C(=O)OCC)cn2c2ccccc21 | 146 to 148 °C |
| CN(C(=O)CCSC(c1ccccc1)(c1ccccc1)c1ccccc1)c1cn(-c2cccnc2)nc1Cl | 62 to 64 °C |
| CN(C)C(=O)Nc1ccc(NCc2ccc(Cl)cc2Cl)cc1N | 147 to 152 °C |
| CCOC(=O)C(=CNc1nonc1C)C(=O)c1cc(F)c(F)c(F)c1F | 88 to 92 °C |
| Nc1ccc(CCNS(=O)(=O)c2cccc3[nH]nnc23)cc1 | 178 to 179 °C |
| BrCCCCOc1ccc2c(c1)OCO2 | 52 to 54 °C |

| SMILES | melting point |
| --- | --- |
| O=C(O)Cc1ccc([N+](=O)[O-])cc1CC(=O)O | 187 to 188 °C |
| O=C(Cl)OCC1c2ccccc2Oc2ccccc21 | 64 to 65 °C |
| Cc1ccc(S(=O)(=O)Nc2ccc(SC#N)cc2[N+](=O)[O-])cc1 | 121 to 122 °C |
| CSC1C(=O)Nc2c(C(=O)c3ccc(Cl)cc3)cccc21 (centres undefined) | 186 to 188 °C |
| c1ccc2c(c1)OCC(CN1CCC(CNc3nc4cnccc4s3)CC1)O2 (centres undefined) | 147 °C |
| CCCCCNC(=S)NC(Cc1ccc(OC)cc1)=Nc1ccccc1 | 125 to 126 °C |
| CCCc1nc2c(N)nc(C)c(C)c2n1CCCCCS(=O)(=O)c1ccccn1 | 143 to 144 °C |
| CCOC(=O)C(=O)c1ccccc1C(=O)c1ccc(Cl)cc1 | 79 to 81 °C |
| CCOC(=O)c1ccc(CN(C(C)=O)C(=O)OC(C)(C)C)cc1 | 96 to 97 °C |
| COC(=O)c1cc(OCCCOc2ccc(-c3ccccc3)cc2)cc(OCCCOc2ccc(-c3ccccc3)cc2)c1 | 142 to 145 °C |
| CC(=O)c1ccc(NS(=O)(=O)N(C)C)cc1 | 129 to 130 °C |
| CCCCCCCCCCCCc1ccc(C#Cc2c3ccccc3c(C#Cc3ccc(CCCCCCCCCCCC)cc3)c3ccccc23)cc1 | 111 to 113 °C |
| CSc1cc(C=O)cc(OCc2ccccc2)c1O | 117 to 119 °C |
| Cc1ccc(-c2cccc(/C=C/C(=O)Nc3ccc(C(O)c4ccccn4)cc3)c2)cc1 (centres undefined) | 162 to 165 °C |
| Cc1ccccc1-n1ccc2nnc3c(C)cccc3c21 | 105 to 106 °C |
| CCCCCCCCc1ccc(OCC(=O)Cn2cccc2)cc1 | 58 to 59 °C |
| COc1c(C)cc(C)cc1C(=O)O | 97 to 98 °C |
| Clc1ccc(N2CCN(CCC3OCCc4cc(Br)ccc43)CC2)cc1 (centres undefined) | 94 to 96 °C |
| Cc1c(C(=O)Nc2ccc(N3CCN(C)CC3)c(C#N)c2)cnn1-c1ccc(F)cc1 | 205 to 207 °C |
| Cc1cc2[nH]c(C)nc(NCCN3CCOCC3)c-2n1 | 237 to 238 °C |
| O=C1NC(=O)c2c1c(-c1ccccc1)cc1c2c2cc(O)ccc2n1CCn1ccnc1 | > 345 °C |
| CCCCCCCCCCCCCC(=O)NN | 107 to 111 °C |
| CCOC(=O)c1ccc(N2CCN(c3ccncc3)CC2)cc1 | 162 to 164 °C |
